“And” between values parts separate entries of the source, which are not always exact repeats. Identical values can stand only once. Like-named read-outs stand apart in the source and are kept apart here.
Tests used:
[1] = system: isolated 3D7 trophozoites (pHi); assay: pH assay, BCECF-loaded isolated trophozoites; details: TCMDC-124506 5 μM; KAE609 50 nM
PfProRS [2] = target: T1, PfProRS (Plasmodium falciparum, UniProt Q8I5R7); assay: luciferase ATP depletion assay, HTS format; format: biochemical
T1 construct: B2, AA7–746 (minus 6 amino acids, or 99% of the ORF); made in house; host or cells: E. coli BL21(DE3)R3 Rosetta Oxford
T1 sequence (Q8I5R7 7-746): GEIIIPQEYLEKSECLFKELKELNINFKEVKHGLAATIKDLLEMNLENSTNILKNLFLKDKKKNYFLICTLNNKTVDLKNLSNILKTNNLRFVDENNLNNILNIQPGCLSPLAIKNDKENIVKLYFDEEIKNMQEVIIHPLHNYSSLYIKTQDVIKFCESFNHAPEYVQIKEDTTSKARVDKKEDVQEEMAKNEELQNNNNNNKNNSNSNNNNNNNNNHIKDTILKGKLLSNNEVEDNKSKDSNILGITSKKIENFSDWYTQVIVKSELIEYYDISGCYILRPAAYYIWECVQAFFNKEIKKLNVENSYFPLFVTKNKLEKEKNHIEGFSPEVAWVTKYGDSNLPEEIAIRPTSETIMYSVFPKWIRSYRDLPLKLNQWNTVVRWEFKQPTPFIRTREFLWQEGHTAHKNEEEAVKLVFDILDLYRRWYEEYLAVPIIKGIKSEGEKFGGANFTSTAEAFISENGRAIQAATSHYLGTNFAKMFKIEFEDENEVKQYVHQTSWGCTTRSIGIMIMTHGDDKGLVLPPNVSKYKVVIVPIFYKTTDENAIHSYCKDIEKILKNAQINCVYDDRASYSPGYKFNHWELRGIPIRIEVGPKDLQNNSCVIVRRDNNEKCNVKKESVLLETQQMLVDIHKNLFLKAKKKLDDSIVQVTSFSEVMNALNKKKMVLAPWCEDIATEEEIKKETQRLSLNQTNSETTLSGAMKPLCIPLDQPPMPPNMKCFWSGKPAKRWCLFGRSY

[3] = kinetic aqueous solubility, laser nephelometry; format: physicochemical; details: MilliQ water with 1.0% DMSO, kinetic from dmso stock
Experimental: (§1) 485nm (Plouffe et al., 2008).
(§2) described (Vedadi et al., 2006).
(§3) Orange Dye (Life Technologies S-6650).
(§4) In vitro Cell Assay Data Analysis
(§5) (Patterson et al., 2013). […] An
(§6) Triplicate aliquots were transferred to a flat
(§7) Intrinsic Clearance (CLi) experiments
(§8) Test compound (0.5 µM) was
(§9) phosphate buffer, pH 7.4).
(§10) The rate of intrinsic clearance (CLi)
(§11) 52.5mg protein per g liver.
(§12) Ion homeostasis in the malaria parasite

experimental CHI-logD = format: physicochemical; details: HPLC retention (chromatographic hydrophobicity index, CHI)
Description: (§13) […]. In addition to its activity and selectivity, it has good physicochemical and DMPK properties. […].

PfProRS [4] = target: T1, PfProRS; assay: ATP consumption assay with proline or ATP varied (competition); format: biochemical
PfProRS [5] = target: T1, PfProRS; assay: biochemical; format: biochemical; details: read-out: Pf ProRS IC50
[6] = intrinsic clearance in liver microsomes; format: in vitro ADME
Experimental: as §1, §2, §3, §4, §5, §6, §7, §8, §9, §10, §11, §12

HsHEPG2 = assay: mammalian cell line selectivity; format: cell-based; details: Homo sapiens; data not shown
Description: as §13

[7] = system: Plasmodium falciparum strain 3D7; assay: Plasmodium falciparum growth inhibition, SYBR green fluorescence; format: cell-based; details: 3D7, growth inhibition, read-out: Pf (3D7) EC50
HsProRS = target: T2, HsProRS (Homo sapiens, UniProt P07814); assay: luciferase ATP depletion assay, counter-screen; format: biochemical
T2 construct: made in house
T2 sequence (P07814 1007-1512 limits assumed): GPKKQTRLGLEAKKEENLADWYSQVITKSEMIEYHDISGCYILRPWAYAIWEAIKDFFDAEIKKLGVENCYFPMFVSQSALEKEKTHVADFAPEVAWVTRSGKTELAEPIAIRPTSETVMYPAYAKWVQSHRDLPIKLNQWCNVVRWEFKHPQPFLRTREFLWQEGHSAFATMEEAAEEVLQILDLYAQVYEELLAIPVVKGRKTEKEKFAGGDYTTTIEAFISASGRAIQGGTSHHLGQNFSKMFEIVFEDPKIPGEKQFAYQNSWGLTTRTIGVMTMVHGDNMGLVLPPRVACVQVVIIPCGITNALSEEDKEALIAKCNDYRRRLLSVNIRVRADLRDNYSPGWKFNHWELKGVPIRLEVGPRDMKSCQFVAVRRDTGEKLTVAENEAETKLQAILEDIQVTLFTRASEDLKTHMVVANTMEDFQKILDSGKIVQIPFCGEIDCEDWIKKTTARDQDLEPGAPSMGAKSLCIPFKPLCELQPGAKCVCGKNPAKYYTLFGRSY

PfProRS [8] = target: T1, PfProRS; format: binding
PfProRS [9] = target: T1, PfProRS; assay: aminoacylation assay ([3H]-L-proline incorporation into tRNA); format: biochemical
[10] = read-out: Percentage inhibition Pf ProRS

For Cn1nc(C(F)(F)F)c(-c2ccc(F)cc2)c1NC(=O)Nc1ccc(F)cc1 [TCMDC-124506], the “effect on acidification after concanamycin A (100 nM)” value [1] was “a reduction in the degree of acidification”, the “effect on parasite cytosolic pH (pHi)” value [1] was “caused an increase in pHi” and the IC50 (PfProRS [2]; 75 nM ProRS, 60 μM proline, 6 μM ATP, 400 μg/mL yeast tRNA, 2 h 37 °C, read-out: PfProRS IC50) was 74 µM and 73 µM. It also gave an inhibition at 2.5 µM (PfProRS [2]; [10]) of -0.36%, an inhibition at 4.9 µM (PfProRS [2]; [10]) of -2.4% and an inhibition at 9.8 µM (PfProRS [2]; [10]) of 3.73%. For the same compound, the inhibition at 19.5 µM (PfProRS [2]; [10]) was 10.8%, the inhibition at 39 µM (PfProRS [2]; [10]) was 30.9% and the inhibition at 78 µM (PfProRS [2]; [10]) was 55.8%. It also gave an inhibition at 156 µM (PfProRS [2]; [10]) of 79.5%, an inhibition at 313 µM (PfProRS [2]; [10]) of 80.4% and an inhibition at 625 µM (PfProRS [2]; [10]) of 96.2%. For the same compound, the inhibition at 1250 µM (PfProRS [2]; [10]) was 97%, the solubility kinetic [3] was > 250 µM and the chromatographic logD (experimental CHI-logD) was 2.9. The mode of inhibition (PfProRS [4]) was “competitive allosteric inhibitor”, the IC50 (PfProRS [4]; IC50 of TCMDC-124506 as a function of proline, Pro=30 M) was 88 µM and the IC50 (PfProRS [4]; IC50 of TCMDC-124506 as a function of proline, Pro=60) was 110 µM. It also gave an IC50 (PfProRS [4]; IC50 of TCMDC-124506 as a function of proline, Pro=120) of 128 µM, an IC50 (PfProRS [4]; IC50 of TCMDC-124506 as a function of proline, Pro=240) of 151 µM and a Ki (PfProRS [4]; Ki (Cheng-Prusoff, competition with ATP), intercept of IC50 vs [ATP]) of 51 ± 1.6 µM. For the same compound, the Ki (PfProRS [4]; Ki (Cheng-Prusoff, competition with proline), intercept of IC50 vs [Proline]) was 80 ± 4.9 µM, the IC50 (PfProRS [4]; TCMDC-124506 IC50 as a function of ATP, ATP=3 M) was 74.4 µM and the IC50 (PfProRS [4]; TCMDC-124506 IC50 as a function of ATP, ATP=6) was 103 µM. For the same compound, the IC50 (PfProRS [4]; TCMDC-124506 IC50 as a function of ATP, ATP=12) was 145 µM, the IC50 (PfProRS [5]) was 5 µM and the “mouse microsomal clearance (Cli)” value [6] was 1.6 mL/min/g. For the same compound, the EC50 (HsHEPG2) was > 50 µM, the EC50 [7] was 600 nM and the IC50 (HsProRS) was > 700000 nM. It also gave an inhibition at 2.5 µM (HsProRS; at 2.5 μM, read-out: Percentage inhibition Hs ProRS) of 0.3%, an inhibition at 4.9 µM (HsProRS; at 4.9 μM, read-out: Percentage inhibition Hs ProRS) of 0.28% and an inhibition at 9.8 µM (HsProRS; at 9.8 μM, read-out: Percentage inhibition Hs ProRS) of 0.01%. The inhibition at 19.5 µM (HsProRS; at 19.5 μM, read-out: Percentage inhibition Hs ProRS) was -0.08%, the inhibition at 39 µM (HsProRS; at 39 μM, read-out: Percentage inhibition Hs ProRS) was 0.26% and the inhibition at 78 µM (HsProRS; at 78 μM, read-out: Percentage inhibition Hs ProRS) was 0.84%. It also gave an inhibition at 156 µM (HsProRS; at 156 μM, read-out: Percentage inhibition Hs ProRS) of 0.82%, an inhibition at 313 µM (HsProRS; at 313 μM, read-out: Percentage inhibition Hs ProRS) of 0.26% and an inhibition at 625 µM (HsProRS; at 625 μM, read-out: Percentage inhibition Hs ProRS) of 0.12%. The inhibition at 1250 µM (HsProRS; at 1250 μM, read-out: Percentage inhibition Hs ProRS) was 0.04% and the “inhibitory activity for HsProRS” value (HsProRS; up to the limit of solubility (>1 mM)) was < 40%.

For O=C(CC1NCCCC1O)Cn1cnc2cc(Br)c(Cl)cc2c1=O (stereo not shown) [halofuginone], the “change in thermal stability” value (PfProRS [8]; full-length recombinant protein B1) was “no increase in stability”, the “shift in stability (thermal melt)” value (PfProRS [8]; recombinant protein B2) was 6 ° and the IC50 (PfProRS [2]; PfProRS IC50, 75 nM ProRS, 60 μM proline, 6 μM ATP, 400 μg/mL yeast tRNA, 2 h 37 °C) was 0.28 µM. For the same compound, the IC50 (PfProRS [2]; PfProRS IC50, luciferase ATP depletion assay) was 0.275 µM, the inhibition at 0.02 µM (PfProRS [2]; [10]) was -0.05% and the inhibition at 0.05 µM (PfProRS [2]; [10]) was 2.49%. For the same compound, the inhibition at 0.1 µM (PfProRS [2]; [10]) was 10.8%, the inhibition at 0.2 µM (PfProRS [2]; [10]) was 34.4% and the inhibition at 0.39 µM (PfProRS [2]; [10]) was 69%. It also gave an inhibition at 0.78 µM (PfProRS [2]; [10]) of 90%, an inhibition at 1.56 µM (PfProRS [2]; [10]) of 98.9% and an inhibition at 3.13 µM (PfProRS [2]; [10]) of 99.1%. It also gave an inhibition at 6.25 µM (PfProRS [2]; [10]) of 95%, an inhibition at 12.5 µM (PfProRS [2]; [10]) of 93.6% and an inhibition at 25 µM (PfProRS [2]; [10]) of 93.9%. For the same compound, the IC50 (PfProRS [9]) was 11 nM, the IC50 (HsProRS; 75 nM ProRS, 60 μM proline, 6 μM ATP, 400 μg/mL yeast tRNA, 2 h 37 °C) was 2000 nM and 2130 nM and the “fold difference between PfProRS and HsProRS IC50” value (HsProRS; HsProRS vs PfProRS) was ≤ 8 fold. The inhibition at 0.02 µM (HsProRS; at 0.02 μM, read-out: Percentage inhibition Hs ProRS) was 0.15%, the inhibition at 0.05 µM (HsProRS; at 0.05 μM, read-out: Percentage inhibition Hs ProRS) was -0.14% and the inhibition at 0.1 µM (HsProRS; at 0.10 μM, read-out: Percentage inhibition Hs ProRS) was 0.21%. It also gave an inhibition at 0.2 µM (HsProRS; at 0.20 μM, read-out: Percentage inhibition Hs ProRS) of 1.95%, an inhibition at 0.39 µM (HsProRS; at 0.39 μM, read-out: Percentage inhibition Hs ProRS) of 9.43% and an inhibition at 0.78 µM (HsProRS; at 0.78 μM, read-out: Percentage inhibition Hs ProRS) of 24.7%. It also gave an inhibition at 1.56 µM (HsProRS; at 1.56 μM, read-out: Percentage inhibition Hs ProRS) of 46.5%, an inhibition at 3.13 µM (HsProRS; at 3.13 μM, read-out: Percentage inhibition Hs ProRS) of 64.1% and an inhibition at 6.25 µM (HsProRS; at 6.25 μM, read-out: Percentage inhibition Hs ProRS) of 74.3%. For the same compound, the inhibition at 12.5 µM (HsProRS; at 12.50 μM, read-out: Percentage inhibition Hs ProRS) was 85.7% and the inhibition at 25 µM (HsProRS; at 25.00 μM, read-out: Percentage inhibition Hs ProRS) was 89.2%.
